Data reported in ChEMBL document CHEMBL1137310, “Stereoselective chemoenzymatic synthesis of the four stereoisomers of l-2-(2-carboxycyclobutyl)glycine and pharmacological characterization at human excitatory amino acid transporter subtypes 1, 2, and 3” (J Med Chem, 2006).

Tests used:
Format in all cases: functional, cell-based
[1] = biological target: T1, Excitatory amino acid transporter 3 (Homo sapiens, UniProt P43005); experiment: Inhibition of human EAAT3 expressed in HEK293 cells by FLIPR membrane potential assay
T1 sequence (P43005 whole entry): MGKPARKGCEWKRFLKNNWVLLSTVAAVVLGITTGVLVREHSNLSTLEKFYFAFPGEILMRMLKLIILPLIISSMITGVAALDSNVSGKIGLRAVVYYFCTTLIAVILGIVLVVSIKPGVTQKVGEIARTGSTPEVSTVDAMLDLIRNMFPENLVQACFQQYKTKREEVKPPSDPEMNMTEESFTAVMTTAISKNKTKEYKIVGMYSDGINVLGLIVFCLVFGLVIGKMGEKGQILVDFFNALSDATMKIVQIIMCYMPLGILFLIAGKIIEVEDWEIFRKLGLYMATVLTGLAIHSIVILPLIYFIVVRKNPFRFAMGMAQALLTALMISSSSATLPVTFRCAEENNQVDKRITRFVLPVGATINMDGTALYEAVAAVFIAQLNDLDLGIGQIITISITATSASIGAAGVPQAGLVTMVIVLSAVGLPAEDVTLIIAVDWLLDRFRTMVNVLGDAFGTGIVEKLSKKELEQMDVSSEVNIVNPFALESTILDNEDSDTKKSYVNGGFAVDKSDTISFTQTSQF

[2] = biological target: Excitatory amino acid transporter 2 (Homo sapiens, UniProt P43004); experiment: Inhibition of human EAAT2 expressed in HEK293 cells by FLIPR membrane potential assay
[3] = biological target: Excitatory amino acid transporter 1 (Homo sapiens, UniProt P43003); experiment: Inhibition of human EAAT1 expressed in HEK293 cells by FLIPR membrane potential assay
Chain of Excitatory amino acid transporter 1 (P43003 whole entry): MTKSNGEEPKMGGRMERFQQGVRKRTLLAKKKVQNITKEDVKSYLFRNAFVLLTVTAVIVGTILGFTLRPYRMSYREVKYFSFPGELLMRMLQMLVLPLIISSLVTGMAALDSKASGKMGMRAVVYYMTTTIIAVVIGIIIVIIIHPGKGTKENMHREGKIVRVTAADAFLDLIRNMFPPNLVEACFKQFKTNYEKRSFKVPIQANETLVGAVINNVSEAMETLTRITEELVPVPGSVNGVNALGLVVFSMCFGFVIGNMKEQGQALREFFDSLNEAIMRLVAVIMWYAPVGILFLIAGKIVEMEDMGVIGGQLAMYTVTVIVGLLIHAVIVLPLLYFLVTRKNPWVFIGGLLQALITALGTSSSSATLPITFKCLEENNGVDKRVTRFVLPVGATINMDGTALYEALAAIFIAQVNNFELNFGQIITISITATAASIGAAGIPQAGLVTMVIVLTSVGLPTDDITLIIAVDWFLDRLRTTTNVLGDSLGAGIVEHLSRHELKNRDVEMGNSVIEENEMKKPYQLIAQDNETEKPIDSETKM

Chain of Excitatory amino acid transporter 2 (P43004 whole entry): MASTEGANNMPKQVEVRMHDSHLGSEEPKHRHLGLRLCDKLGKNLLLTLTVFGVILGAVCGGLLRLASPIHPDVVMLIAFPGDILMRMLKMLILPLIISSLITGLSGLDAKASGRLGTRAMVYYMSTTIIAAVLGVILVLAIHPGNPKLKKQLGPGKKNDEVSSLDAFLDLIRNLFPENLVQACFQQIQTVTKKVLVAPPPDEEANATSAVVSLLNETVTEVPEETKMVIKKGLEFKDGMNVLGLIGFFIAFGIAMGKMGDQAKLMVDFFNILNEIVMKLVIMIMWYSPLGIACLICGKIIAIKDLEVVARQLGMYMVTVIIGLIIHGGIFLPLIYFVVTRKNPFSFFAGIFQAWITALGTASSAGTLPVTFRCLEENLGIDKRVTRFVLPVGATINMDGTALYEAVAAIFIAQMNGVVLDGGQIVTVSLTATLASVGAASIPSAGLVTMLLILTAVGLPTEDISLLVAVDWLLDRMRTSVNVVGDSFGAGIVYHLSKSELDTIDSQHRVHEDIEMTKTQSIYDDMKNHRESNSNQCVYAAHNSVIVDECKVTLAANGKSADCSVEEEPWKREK

| SMILES | Ki [1] [µM] | Ki [2] [µM] | Ki [3] [µM] |
| --- | --- | --- | --- |
| N[C@H](C(=O)O)[C@@H]1CC[C@H]1C(=O)O | 49 | 22 | – |
| N[C@H](C(=O)O)[C@@H]1CC[C@@H]1C(=O)O | 10 | 6.6 | 200 |
